The text below walks through data of patent US20030166511A1, “Cardioprotective composition comprising ceruloplasmin and uses thereof” (GESTILAB INC., priority 1999, published 2003).

Read-outs that look alike come from different tables or passages of the source.

The conditions of series [1]: cited from earlier work; for concentrations ensuring good antioxidative activity in vitro: in vitro (Atanasiu et al., 1998).
Series [2] has as its system ischemic isolated rat heart. The series can be described thus: Reperfusion-induced irreversible ventricular fibrillation in isolated rat heart submitted to partial ischemia-reperfusion (Langendorff). Conditions: TRIAD (S2) 0.16×, CP 0.5 μM. How it is done:
All experiments were conformed to rules of the Guide for the care and use of laboratory animals published by the US National Institutes of Health (NIH publication No 85-23, revised 1985). Adult male Wistar rats (225-250 g) were anaesthetized with sodium pentobarbitone intra-peritoneally (0.1 ml/100 g body weight) and then heparinized (500 UI intra-peritoneally). […]
Hearts were perfused for a 10 min control period with KH buffer, and then […] with KH+TRIAD for stabilization. […] At the end of this 10 min arterial occlusion period, reperfusion was initiated by cutting the ligature with a scalpel bled and rhythm disturbances were monitored for 15 min more. Left ventricular pressure and epicardial ECG were continuously monitored before and during ischemia and reperfusion. […]
Rat hearts were first perfused for 10 min with KH buffer and then for another 10 min with the same buffer containing TRIAD (S2) prepared as described above (section 2.2), until equilibration of cardiodynamic variables was achieved. […] Left ventricular pressure and epicardial ECG were continuously monitored before and during ischemia and reperfusion. […]
Arrhythmia were defined according to the Lambeth convention (Walker et al., 1988). ECG recordings were analyzed for the incidence of irreversible ventricular fibrillation (IVF) and for the time of normal sinus. […]

For the next series, the system named is isolated rat hearts. Conditions: isolated rat heart, blood-free model (Chahine et al., 1991; Atanasiu et al, 1995), cited from earlier work.
The conditions of series [3]: conditions without oxidative stress (Atanasiu et al, 1996); cited from earlier work.

Turning to Albumin [reference compound], the “concentrations ensuring good antioxidative activity in vitro” value in series [1] is 260 µM.

Consider Ceruloplasmin [CP], for which the “incidence of reperfusion-induced irreversible ventricular fibrillation (IVF)” value in series [2] (isolated rat heart, 10 min regional ischemia then reperfusion, control 100%) is 75%. In series [2] (reduction of IVF incidence versus control (100%)), this substance came in with a cardioprotection of 25%. Moreover, the “concentrations ensuring good antioxidative activity in vitro” value in series [1] is 2 to 15 µM. The “scavenging capacity compared with other antioxidants” value in series [1] (in vitro, β-phycocyanin indicator) is “better scavenging capacity than SOD and than deferoxamine”. For the same substance, in the series on isolated rat hearts, the cardioprotective concentrations entry is reported as “up to 2 μM”. Besides, the cardiotoxic concentration in the series with isolated rat hearts was not below 4 µM; with isolated rat hearts (listed as Ceruloplasmin) it was 4 µM. The electrophysiological effect entry in series [3] was “prolongation of Effective Refractory Period (ERP) and of the action potential (AP)”.
